Measured values: patent publication US10166197B2, “Sugar ester nanoparticle stabilizers” (St. John's University, priority 2015, dated 2019)

Test: Dispersion test, USP apparatus II (paddle method), 0.45 μm filtration and HPLC
Format: physicochemical
Settings: 0.45 μm pore size filter
Procedure: Dispersion tests were then run on each of the dosage forms using USP apparatus II (the paddle method). Dried samples corresponding to 20 mg of the lyophilized powder were weighed and mixed with 2% SLS and placed into 250 mL of dissolution media with a holding temperature at 37±0.5° C. The rotation speed of the paddle was set to 50 rpm. The dispersion test was performed in two steps: stimulated gastric fluid (pH 1.2) for up to 120 minutes, and changing the pH to pH 6.8 after that by adding 1N NaOH. This is to mimic the gastrointestinal pH conditions. Aliquots of the suspension were taken after 1, 3, 5, 10, 15, 30, 60, 120, 150, and 180 minutes. The aliquots were then filtered through a hydrophilic PTFE membrane filter with 0.45 μm pore size, diluted appropriately with an organic solvent to dissolve drug particles and analyzed for drug content by HPLC.
Dispersion tests were also performed on capsules and tablets of the lyophilized powder.

drug dispersion (result in words): did not demonstrate any drug dispersion
SMILES: CC(C)(Sc1cc(C(C)(C)C)c(O)c(C(C)(C)C)c1)Sc1cc(C(C)(C)C)c(O)c(C(C)(C)C)c1 [neat probucol powder, probucol]
